Test results published in ChEMBL document CHEMBL1201862, “PubChem BioAssay data set” (2004).
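All cell lines were grown in 96-well plates and treated with compound for 48 hours. Abbreviation: GI50, concentration required for 50% inhibition of growth.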 The source made the active and inactive calls. Rule as the data show it: active = GI50 up to about 1.1 µM and inactive = higher.

Experiments:
Assay in all cases: NCI tumour cell line growth inhibition, 48 h
COLO 205 = system: COLO 205
UO-31 = system: UO-31
MOLT-4 = system: MOLT-4
MDA-MB-435 = system: MDA-MB-435
OVCAR-8 = system: OVCAR-8
TK-10 = system: TK-10
Malme-3M = system: Malme-3M
MDA-N = system: MDA-N
HCT-116 = system: HCT-116
HOP-92 = system: HOP-92
Hs-578T = system: Hs-578T
SK-MEL-2 = system: SK-MEL-2
SF-295 = system: SF-295
A498 = system: A498
HL-60 = system: HL-60
SNB-75 = system: SNB-75
SN12C = system: SN12C
U-251 = system: U-251
EKVX = system: EKVX
SF-268 = system: SF-268

Measured: GI50

CC1(O)C2(c3ccccc3)CCC[N+]1(C)CC2 (stereo not given)
inactive: COLO 205 > 100 µM | UO-31 > 100 µM | MOLT-4 > 100 µM | MDA-MB-435 > 100 µM | OVCAR-8 > 100 µM | TK-10 > 100 µM | Malme-3M > 100 µM | MDA-N > 100 µM | HCT-116 > 100 µM | HOP-92 > 100 µM | Hs-578T > 100 µM | SK-MEL-2 > 100 µM | SF-295 > 100 µM | A498 > 100 µM | HL-60 > 100 µM | SNB-75 > 100 µM | SN12C > 100 µM | U-251 > 100 µM

O=S(=O)(O)c1cc(S(=O)(=O)O)c2cc(/N=N/c3ccc(/N=N/c4ccc(/C=C/c5ccc(/N=[N+](/[O-])c6ccc(/C=C/c7ccc(/N=N/c8ccc(/N=N/c9ccc%10cc(S(=O)(=O)O)cc(S(=O)(=O)O)c%10c9)cc8)cc7S(=O)(=O)O)c(S(=O)(=O)O)c6)cc5S(=O)(=O)O)c(S(=O)(=O)O)c4)cc3)ccc2c1
inactive: COLO 205 50.7 µM | UO-31 70.8 µM | EKVX 82.6 µM | MOLT-4 > 79.3 µM | OVCAR-8 > 78.7 µM | Malme-3M > 62.8 µM | HCT-116 > 28.6 µM | HOP-92 > 58.5 µM | SK-MEL-2 83.9 µM | SF-295 > 33 µM | A498 > 100 µM | HL-60 54.1 µM | SNB-75 35.8 µM | SF-268 > 69 µM | SN12C > 54.1 µM | U-251 > 55.8 µM

COc1ccc2cc1Oc1ccc(cc1)CC1c3c(cc(OC)c4c3Oc3cc5c(cc3O4)CCNC5C2)CCN1C (stereo not given)
inactive: COLO 205 1.72 µM | UO-31 15.6 µM | EKVX 1.94 µM | MOLT-4 1.46 µM | MDA-MB-435 1.8 µM | OVCAR-8 1.77 µM | TK-10 1.86 µM | Malme-3M 2.09 µM | MDA-N 1.83 µM | HOP-92 2.45 µM | Hs-578T 2.19 µM | SK-MEL-2 1.84 µM | SF-295 1.91 µM | A498 2.1 µM | HL-60 1.84 µM | SF-268 1.95 µM | SN12C 1.91 µM

COc1cc(C2S/C(=C/c3ccccc3)C(=O)N2c2ccc(NC(C)=O)cc2)cc(OC)c1OC (stereo not given)
inactive: COLO 205 15.2 µM | UO-31 24 µM | EKVX 9.71 µM | MOLT-4 4.61 µM | MDA-MB-435 18.2 µM | OVCAR-8 18.5 µM | TK-10 37.2 µM | Malme-3M 22 µM | MDA-N 19.3 µM | HCT-116 12.7 µM | HOP-92 20.2 µM | Hs-578T 21.2 µM | SF-295 36.6 µM | A498 21.4 µM | SNB-75 3.3 µM | SF-268 17.9 µM | SN12C 15.8 µM | U-251 15.6 µM
active: SK-MEL-2 0.71 µM
